{"source": "paper PMC12624434", "about": "(ACS Pharmacology & Translational Science, 2025)", "key": {"NRP1 b1 domain": {"molecular_target": "T1, NRP1 b1 domain (Homo sapiens, UniProt O14786)", "T1 construct": "with the purified recombinant NRP1 b1 domain immobilized on the chip; inferred from Ni-NTA capture), TEV-cleavable (cleaved yes); made in house; host or cells: E. coli Rosetta (DE3)", "T1 sequence (O14786 275-424 limits assumed)": "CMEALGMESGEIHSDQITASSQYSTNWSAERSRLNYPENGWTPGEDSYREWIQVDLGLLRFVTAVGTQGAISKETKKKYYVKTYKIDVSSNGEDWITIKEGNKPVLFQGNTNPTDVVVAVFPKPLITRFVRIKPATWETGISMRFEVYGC", "test": "SPR binding to immobilized NRP1 b1 domain (Biacore 4000, CM5 chip)", "conditions": "steady-state binding, 25 °C; mean ± SD; read-out: SPR NRP1 b1 domain equilibrium KD", "experimental": "Surface Plasmon Resonance experiments were performed using a Biacore 4000 instrument at a constant temperature of 25 °C. Sensor chips, buffer stock solutions, and immobilization reagents were purchased from GE Healthcare. Recombinant human NRP1-b1 was produced in-house and recombinant human NRP1-ECD (extracellular domain) was purchased from ACRO (catalogue number NR1-H5A228). All other reagents were obtained from Sigma.\nPBS containing 0.05% surfactant P20 was used as the running buffer during immobilization. NRP1-b1 was immobilized onto a CM5 chip using random amine coupling. The four flow cells were treated in the same way to optimize throughput. In summary, spots 1 and 2 were activated with the coupling reagents EDC and NHS for 10 min. NRP1-b1 at a concentration of 20 μg/mL in 10 mM sodium acetate pH 5 was injected onto the surface for 10 and 5 min in spots 1 and 2, respectively to generate surfaces with high and low density. […] The unmodified spot 3 was used as a reference.\nPBS buffer containing 0.05% surfactant P20 and 3% DMSO was used as the running buffer and sample dilution buffer throughout these experiments. Dose–responses were obtained using a 2-fold sample dilution from 16 μM to 31 nM, using an injection time of 60 s. Surface regeneration between injections was not necessary, but a wash step with 1 M NaCl was included after injection of the highest concentration sample for each compound.\nBinding curves were corrected for variations in DMSO concentration and normalized by molecular weight. Binding results to high and low-density surfaces were processed independently and the average ± SD is presented. K Ds reported are derived from steady-state binding responses and therefore correspond to the equilibrium binding affinity of the compounds."}, "[1]": {"tested_on": "T180/Y182 phosphorylated p38 (P-p38) in retinal endothelium", "test": "VEGFA-induced p38 phosphorylation in ex vivo mouse retina (immunostaining)", "type": "cell-based", "experimental": "Retinae from C57Bl/6J mice were fixed in 4% formaldehyde in PBS for 1 h and washed three times with PBS. After 1 h in blocking buffer (3% Triton X-100, 1%1% Tween and 0.5% BSA in 2× PBS), retinae were immunostained by incubation with rabbit anti-P-p38 MAPK (Thr180/Tyr182) antibody (Cell Signaling) and biotin-conjugated Isolectin B4 (IB4, Merck) overnight at 4 °C, followed by Alexa Fluor 555–conjugated goat antirabbit antibodies (Invitrogen) and Alexa Fluor 488-conjugated streptavidin (Invitrogen) respectively for 1 h at rt. Images were acquired with a Zeiss Axioskop 2 microscope, using a ph3 Plan-Apochromat 63×/1.40 oil objective, Hamamatsu camera and the HCImage software. Each image was acquired as an RGB color image and then processed with ImageJ software version 1.52a (NIH Bethesda). Channels were split to separate the IB4 staining (green channel) from the P-p38 staining (red channel). The threshold function was used on the IB4 image to determine the area of the vessels and to generate a mask that was restored in the red channel image to measure the area of the vessels positive to P-p38 staining. The P-p38 staining area was normalized against the area stained with IB4. Three retinae from three different mice per condition were used for analysis. One-way ANOVA was used to compare the different treatments."}, "[2]": {"tested_on": "P-p38 in human brain endothelial cell line hCMEC/D3", "test": "p38 phosphorylation in hCMEC/D3 cells (immunoblotting)", "type": "cell-based", "experimental": "Cell lysates of the human brain endothelial cell line hCMEC/D3 were prepared in RIPA buffer containing 0.1% SDS, protease inhibitor cocktail 2 and phosphatase inhibitor cocktail (Sigma-Aldrich). Proteins were separated by SDS-PAGE and transferred to nitrocellulose by wet electrotransfer. Membranes were blocked with 5% milk in Tris-buffered saline (TBS) overnight at 4 °C and then incubated with the appropriate primary antibody diluted in TBS containing 0.1% Tween-20 and 1% BSA for 2 h and 30 min at rt; the primary antibodies used were specific for phospho P-p38, p38 (1:1000; Cell Signaling Technology) and GADPH (1:10000; Merck). Membranes were washed with 0.1% Tween-20 in TBS and then incubated with goat antimouse or goat antirabbit horseradish peroxidase (HRP)-conjugated IgG (GE Healthcare) diluted 1:10,000 or 1:5000, respectively, with 0.1% Tween-20, 1% BSA in PBS. Membranes were developed using the ECL reagents (Roche) and images were acquired with the Bio-Rad ChemiDoc MP Imaging System and the Bio-Rad Image Lab software (version 6.0.1). Protein bands were quantified using ImageJ software version 1.52a (NIH Bethesda), whereby signal intensity was normalized to signal intensity from GADPH from the same sample as a loading control. Phosphorylation levels were normalized against the total levels of p38. Densitometric quantification of three independent immunoblots was determined by changes in protein or phosphoprotein content normalized to GADPH total protein loading controls, with values expressed as fold increase. Data are shown as mean ± SD. Statistical analysis included one-way ANOVA with significance levels set at 0.05, followed by posthoc Dunnett’s tests."}, "[3]": {"tested_on": "total Na+ currents in rat DRG neurons", "test": "Whole-cell patch-clamp of Na+ currents in dissociated DRG neurons", "type": "cell-based", "conditions": "for V 1/2 activation, total Na+ / V 1/2 inactivation, total Na+: mean ± SEM (n cells)"}, "[4]": {"tested_on": "VEGFA-induced mechanical allodynia in rats", "test": "VEGFA-induced mechanical allodynia (von Frey), intraplantar injection", "type": "in vivo, rat", "experimental": "(§1) The procedure was performed as reported previously. Briefly, rats were gently restrained in a fabric cloth and given an intraplantar injection in the hind-paw containing VEGFA165 (10 nM) and compound (EG00229 or 12h, at 30 or 10 μM) alone or in combination in 50 μL of PBS vehicle (NaCl 137 mM, KCl 2.5 mM, Na2HPO4 10 mM, and KH2PO4 1.8 mM), using a 31G needle."}, "[5]": {"tested_on": "VEGFA-induced aversion to mechanical stimuli in rats", "test": "Conditioned place aversion (CPA) to 10 g vF stimulation after VEGFA", "type": "in vivo, rat", "experimental": "as §1\nThe experiments were conducted in a two-chamber device based on the protocols from and as previously described. The protocol includes 4 × 10 min of sequential tests of preconditioning (10 min), conditioning (2 × 10 min) and testing (10 min). During preconditioning, the animal is allowed free access to two connected chambers (30 × 30 × 19 cm), each associated with a scented lip-balm applied to the walls. Immediately following preconditioning, a divider was applied between the chambers, and the rats were conditioned to either stimuli or no-stimuli for 10 min in each chamber. The stimuli consisted of repeated stimulation with a 10 g VF-filament every 30 s for the 10 min that the subject was contained in that chamber, while no stimuli (NS) was applied in the other chamber. The order and side of conditioning was alternated between subjects. Following the conditioning, the divider was removed, and the rat was allowed free access to both chambers for the 10 min test. Animal movements in each chamber were recorded by a camera above, and the duration of time spent in each chamber was recorded during preconditioning and test phase. Decreased time spent in a chamber during the test versus preconditioning indicated avoidance for that chamber and was calculated as a CPA-score: time in VF-chamber during preconditioning – time in VF-chamber during test."}, "[6]": {"conditions": "for comparison; no reference given; cited from earlier work"}, "[7]": {"conditions": "30 μM, 15 min prior to VEGFA165 stimulation"}}, "note": "“Also recorded” adds a separate entry of the source. Marks after values point to notes of the source that are not given here."}
{"smiles": "NC(N)=NCCCC(NC(=O)c1sccc1NS(=O)(=O)c1cccc2nsnc12)C(=O)O", "note": "(centres unmarked) [EG00229, reference compound]", "values": [{"measurement": "Kd", "setting": "NRP1 b1 domain", "result": "2710 ± 130", "unit": "nM"}, {"measurement": "p38 phosphorylation when added alone", "setting": "[1]; 30 μM alone, 5 min", "result": "induced p38 phosphorylation"}, {"measurement": "effect on VEGFA-induced p38 phosphorylation in retinal endothelium", "setting": "[1]; [7]", "result": "prevented VEGFA-induced p38 phosphorylation"}, {"measurement": "p38 phosphorylation when added alone", "setting": "[2]; 30 μM alone, 5 min", "result": "induced p38 kinase phosphorylation"}, {"measurement": "effect on VEGFA-induced p38 phosphorylation", "setting": "[2]; [7]", "result": "prevented VEGFA-induced p38 phosphorylation"}, {"measurement": "effect on Na+ currents, alone", "setting": "[3]; 30 μM alone, 30 min", "result": "Neither EG00229 nor 12h alone had any obvious effect"}, {"measurement": "effect on VEGFA-induced increase in Na+ currents and current density", "setting": "[3]; 30 μM, then VEGFA165 1 nM 30 min, small-sized DRG neurons", "result": "equally reduced"}, {"measurement": "V 1/2 activation, total Na+", "setting": "[3]; compound 30 μM + VEGFA", "result": "–16.384 ± 0.773 (15) ^b mV"}, {"measurement": "V 1/2 inactivation, total Na+", "setting": "[3]; compound 30 μM + VEGFA", "result": "–49.707 ± 2.554 (15) mV"}, {"measurement": "V 1/2 activation, total Na+", "setting": "[3]; compound alone, 30 μM", "result": "–15.229 ± 0.972 (10) ^b mV"}, {"measurement": "V 1/2 inactivation, total Na+", "setting": "[3]; compound alone, 30 μM", "result": "–49.108 ± 2.415 (10) mV"}, {"measurement": "effect on VEGFA-induced mechanical allodynia", "setting": "[4]; 10 μM coinjected with VEGFA, male rats", "result": "produced significant antinociceptive effects"}, {"measurement": "effect on VEGFA-induced mechanical allodynia (paw withdrawal threshold, AUC 0-6 h)", "setting": "[4]; 30 μM coinjected with VEGFA165 10 nM, 50 μL intraplantar, male and female rats", "result": "comparable antinociceptive effects in males and females"}, {"measurement": "effect on VEGFA-induced aversion in CPA-paradigm", "setting": "[5]; 10 μM, male rats", "result": "had no effect"}, {"measurement": "VEGFA-induced aversion (time in vF-conditioned chamber)", "setting": "[5]; 30 μM coinjected with VEGFA 10 nM, male and female rats", "result": "prevented the stimulus-aversion from VEGFA in both sexes; also recorded: the aversion was prevented"}, {"measurement": "CPA-score vs VEGFA/vehicle", "setting": "[5]; 30 μM, female rats", "result": "showed a significant effect"}, {"measurement": "half-life", "setting": "[6]", "result": 34.8, "unit": "min"}]}
